Measurements: paper PMC5224880, “Discovery and Molecular Basis of a Diverse Set of Polycomb Repressive Complex 2 Inhibitors Recognition by EED” (PLoS ONE, 2017)

Columns and labels:
[1] = molecular target: T1, His-EED (residues 1–441) (Homo sapiens, UniProt O75530); assay: biochemical; details: 30 nM His-EED, 15 nM biotin-H3K27me3 (19–33) peptide; read-out: IC50, EED-H3K27me3 AlphaScreen competition binding assay
T1 construct: 30 nM His-EED (residues 1–441) protein
Description: The data were then fit to a dose response equation using the program Helios (Novartis) to determine the IC50 values.
Each compound was counterscreened to determine if it interfered with the AlphaScreen beads. Compounds were diluted as described in the preceding section, and the assay was performed by adding 12 μL of 10 nM Biotin-miniPEG-His6 peptide in the above buffer and incubated for 20 min at room temperature prior to addition of the acceptor and donor beads. The plates were then incubated for 1 h at room temperature in the dark before being read on the EnVision system (Perkin Elmer).
In addition to the enzymatic assay, we also developed a binding assay to measure the interaction between His-tagged recombinant EED protein and a biotinylated H3K27me3 peptide using the Amplified Luminescence Proximity Homogenous Assay Screen (AlphaScreen) [33, 34]. Binding of Biotin-H3K27me3 peptide to His-EED protein brings the streptavidin-coated donor beads and anti-His antibody coated acceptor beads into close proximity and thus a luminescent signal is produced. Disruption of EED-H3K27me3 interaction by H3K27me3 pocket binders will result in the signal reduction.

[2] = molecular target: T2, SetD8 (Homo sapiens, UniProt Q9NQR1); assay: HMT panel selectivity: SetD8; format: biochemical
T2 sequence (Q9NQR1 1-393): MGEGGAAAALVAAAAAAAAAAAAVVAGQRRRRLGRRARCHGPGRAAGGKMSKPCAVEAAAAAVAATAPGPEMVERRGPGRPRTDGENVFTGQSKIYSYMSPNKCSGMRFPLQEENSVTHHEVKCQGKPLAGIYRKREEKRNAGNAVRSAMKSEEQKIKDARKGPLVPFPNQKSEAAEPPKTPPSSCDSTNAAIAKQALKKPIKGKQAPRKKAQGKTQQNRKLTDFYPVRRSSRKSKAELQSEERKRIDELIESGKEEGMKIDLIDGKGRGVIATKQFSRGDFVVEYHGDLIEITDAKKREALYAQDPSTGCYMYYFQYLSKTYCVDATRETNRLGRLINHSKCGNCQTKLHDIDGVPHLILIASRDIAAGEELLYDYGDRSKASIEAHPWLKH
Description: (§1) Note: for EZH2, EZH2/EED/SUZ12/RBAP48/AEBP2 was used in the assay; for EZH1, EZH1/EED/SUZ12/RBAP48/AEBP2 was used in the assay; for MLL, MLL/WDR5/RBBP5/ASH2L/ was use in the assay. a, H3K27me0 peptide was used as substrate for both EZH2 and EZH1 activity; b, H3K27me1 peptide was used as substrate for both EZH2 and EZH1 activity. All HMT reactions were performed as described previously. ref: Proc Natl Acad Sci U S A. 2012 Dec 26;109(52):21360-5.

[3] = molecular target: T3, CARM1 (Homo sapiens, UniProt Q86X55); assay: HMT panel selectivity: CARM1; format: biochemical
T3 sequence (Q86X55 1-608): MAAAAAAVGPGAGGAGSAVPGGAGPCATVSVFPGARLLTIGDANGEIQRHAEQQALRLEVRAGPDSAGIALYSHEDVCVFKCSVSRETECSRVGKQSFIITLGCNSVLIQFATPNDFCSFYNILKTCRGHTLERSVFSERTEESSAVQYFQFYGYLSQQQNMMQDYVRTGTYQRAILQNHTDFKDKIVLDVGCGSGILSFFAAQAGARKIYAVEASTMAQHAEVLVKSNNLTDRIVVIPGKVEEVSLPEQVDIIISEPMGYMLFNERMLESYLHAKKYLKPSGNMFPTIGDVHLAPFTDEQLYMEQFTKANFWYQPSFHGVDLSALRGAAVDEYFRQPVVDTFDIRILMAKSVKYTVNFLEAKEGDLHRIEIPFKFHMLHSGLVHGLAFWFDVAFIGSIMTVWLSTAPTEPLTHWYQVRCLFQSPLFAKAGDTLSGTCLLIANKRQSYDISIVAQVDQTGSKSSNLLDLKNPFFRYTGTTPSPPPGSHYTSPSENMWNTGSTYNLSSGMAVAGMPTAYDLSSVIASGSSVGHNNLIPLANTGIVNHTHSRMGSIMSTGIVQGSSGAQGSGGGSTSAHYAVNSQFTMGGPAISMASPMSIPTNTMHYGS
Description: as §1

[4] = molecular target: recombinant EED (Homo sapiens, UniProt O75530); assay: ITC binding analysis; details: 25°C
Description: ITC experiments were performed on an Auto ITC200 (Microcal) at 25°C. The ITC sample cell was filled with 10 μM PRC2 in titration buffer containing 25 mM HEPES pH8.0, 150 mM NaCl, and 1% DMSO. 40 μL of 100 μM compounds in the same titration buffer was loaded in the ITC syringe. 19 injections, each of 2 μL, was injected into the ITC cell at 150 s intervals. Binding constant (K) and binding enthalpy (ΔH) determinations were obtained from the fit to the experimental data using a one-site model.
Both isothermal calorimetry (ITC) and surface plasmon resonance (SPR) assay were established for this purpose.

Chain of recombinant EED (O75530 76-441 limits assumed): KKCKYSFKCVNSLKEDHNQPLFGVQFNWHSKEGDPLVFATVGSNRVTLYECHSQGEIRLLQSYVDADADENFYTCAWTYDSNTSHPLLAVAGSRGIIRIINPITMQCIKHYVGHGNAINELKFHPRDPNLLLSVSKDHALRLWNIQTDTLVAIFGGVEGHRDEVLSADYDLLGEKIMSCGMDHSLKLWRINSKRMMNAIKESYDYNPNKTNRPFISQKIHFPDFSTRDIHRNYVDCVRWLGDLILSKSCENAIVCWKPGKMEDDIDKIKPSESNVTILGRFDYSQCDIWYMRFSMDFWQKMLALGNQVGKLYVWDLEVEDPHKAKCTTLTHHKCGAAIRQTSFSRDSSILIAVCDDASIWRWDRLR
T1 sequence (O75530 whole entry, the tested form may be a part): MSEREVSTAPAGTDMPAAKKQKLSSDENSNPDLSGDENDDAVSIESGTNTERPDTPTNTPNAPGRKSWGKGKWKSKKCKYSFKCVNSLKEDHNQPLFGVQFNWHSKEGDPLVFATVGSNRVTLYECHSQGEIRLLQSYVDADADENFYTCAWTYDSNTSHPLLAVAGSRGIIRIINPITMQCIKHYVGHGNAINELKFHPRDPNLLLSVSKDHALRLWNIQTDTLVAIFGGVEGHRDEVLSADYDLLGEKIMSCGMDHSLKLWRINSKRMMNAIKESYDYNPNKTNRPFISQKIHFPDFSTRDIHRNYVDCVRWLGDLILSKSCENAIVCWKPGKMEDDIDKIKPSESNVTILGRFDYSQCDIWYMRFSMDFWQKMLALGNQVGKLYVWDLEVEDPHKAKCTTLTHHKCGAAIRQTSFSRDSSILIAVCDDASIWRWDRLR

Row | SMILES | IC50 [1] [µM] | IC50 [2] [µM] | IC50 [3] [µM] | enthalpy change (ITC) [4] [kJ/mol] | entropy change (ITC) [4] [cal/mol/deg] | stoichiometry of binding N (ITC) [4]
1 | N#Cc1c2c(c3nncn3c1NCc1ccco1)CN(Cc1ccccc1)CC2 [EED162] | 0.32 | > 100 | > 100 |  |  | 
2 | COc1cccc(CC2CC3Cc4c(cccc4OC)CC3N(C)C2)c1 (centres unmarked) [EED210] |  | > 100 | > 100 | -84.27 ± 22.1 | -46.5 | 0.78
3 | COc1cc(-c2cc3n(c(=N)c2C#N)CCc2cc4c(cc2-3)OCO4)ccc1OC(C)C [EED396] |  | > 100 | > 100 |  |  | 
4 | Cc1cc(C)n(-c2cc(N3CCc4ccccc4C3)ccc2[N+](=O)[O-])n1 [EED666] |  | > 100 | > 100 |  |  | 
5 | COc1ccccc1CN1CC(c2cn(C)c3ccccc23)C(N(C)C)C1 (centres unmarked) [EED709] |  | > 100 | > 100 |  |  | 
